{"source": "patent US10183039B2", "about": "“Methods for the production of collagen IV” (Vanderbilt University, priority 2013, dated 2019)", "key": {"[1]": {"target": "T1, peroxidasin (Mus musculus, UniProt Q3UQ28)", "T1 construct": "Cultured murine PFHR9 cells synthesize collagen IV networks that contain sulfilimine crosslinks due to the activity of PXDN; endogenous in cells; host or cells: PFHR-9 cells (isolated matrix from KI-treated culture)", "T1 sequence (Q3UQ28 24-1475)": "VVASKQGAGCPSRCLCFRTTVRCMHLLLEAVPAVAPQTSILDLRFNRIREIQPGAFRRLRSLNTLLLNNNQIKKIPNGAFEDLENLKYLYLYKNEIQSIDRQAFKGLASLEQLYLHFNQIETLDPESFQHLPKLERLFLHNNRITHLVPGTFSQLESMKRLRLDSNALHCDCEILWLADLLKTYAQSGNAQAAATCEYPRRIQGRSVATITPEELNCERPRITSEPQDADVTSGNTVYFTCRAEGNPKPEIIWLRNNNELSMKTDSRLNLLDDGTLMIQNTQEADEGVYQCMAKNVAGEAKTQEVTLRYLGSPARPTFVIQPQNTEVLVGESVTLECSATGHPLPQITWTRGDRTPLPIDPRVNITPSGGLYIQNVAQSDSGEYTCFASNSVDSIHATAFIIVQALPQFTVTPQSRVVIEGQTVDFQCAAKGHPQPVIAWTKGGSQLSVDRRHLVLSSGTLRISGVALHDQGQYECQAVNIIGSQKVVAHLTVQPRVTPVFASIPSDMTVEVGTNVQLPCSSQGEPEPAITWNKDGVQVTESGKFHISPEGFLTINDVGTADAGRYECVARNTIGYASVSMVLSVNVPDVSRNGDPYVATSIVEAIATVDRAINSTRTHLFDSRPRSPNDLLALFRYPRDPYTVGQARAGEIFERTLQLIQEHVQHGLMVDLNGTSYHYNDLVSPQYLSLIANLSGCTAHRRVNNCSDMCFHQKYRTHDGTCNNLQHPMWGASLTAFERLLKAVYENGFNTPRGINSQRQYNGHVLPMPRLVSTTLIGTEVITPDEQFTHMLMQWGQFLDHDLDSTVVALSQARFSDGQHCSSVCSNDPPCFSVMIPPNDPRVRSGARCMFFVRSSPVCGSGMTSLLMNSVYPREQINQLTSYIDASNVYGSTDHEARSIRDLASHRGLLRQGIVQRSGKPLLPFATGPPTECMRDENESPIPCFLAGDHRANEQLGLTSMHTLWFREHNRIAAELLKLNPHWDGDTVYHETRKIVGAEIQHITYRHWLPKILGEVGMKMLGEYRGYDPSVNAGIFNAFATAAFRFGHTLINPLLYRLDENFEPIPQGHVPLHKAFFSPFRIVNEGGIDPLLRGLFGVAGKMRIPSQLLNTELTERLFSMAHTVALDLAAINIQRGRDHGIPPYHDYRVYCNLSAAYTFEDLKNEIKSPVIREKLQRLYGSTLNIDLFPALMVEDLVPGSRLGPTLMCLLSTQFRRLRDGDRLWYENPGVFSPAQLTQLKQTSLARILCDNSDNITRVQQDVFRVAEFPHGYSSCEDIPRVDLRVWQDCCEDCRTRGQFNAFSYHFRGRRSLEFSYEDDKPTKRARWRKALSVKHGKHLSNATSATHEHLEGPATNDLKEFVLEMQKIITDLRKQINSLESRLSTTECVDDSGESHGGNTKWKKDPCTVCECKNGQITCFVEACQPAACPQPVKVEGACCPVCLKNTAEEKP", "assay": "In vitro basement membrane (uncrosslinked PFHR-9 matrix) reaction with halides and H2O2", "assay_type": "biochemical", "conditions": "for S═N bond formation in isolated matrix: 10 mM phosphate pH 7.4, 100 mM KF, 1 mM H2O2, 1 h at 37° C.", "protocol": "(FIG. 8A) Matrix pellets isolated from KI-treated PFHR9 cell culture were extensively washed into 10 mM phosphate buffer (pH 7.4) supplemented with 100 mM KF to maintain ionic strength. Potassium salts of Cl— or Br— were added in indicated amounts. 1 hr reactions at 37° C. were initiated by addition of H2O2 to 1 mM and stopped by freezing at −20° C. Coomassie blue-stained gels after collagenase digestion of the samples and SDS-PAGE (FIG. 8B) Schematic of Br-Free chloride salt purification apparatus and setup. […] Reagent KCl was commercially obtained and unaltered prior to analysis. 100 mM solutions were made with 18MΩ deionized water. (FIG. 8C) Coomassie blue stained gel of collagenase digested PFHR-9 matrix reaction assay. Reaction buffered contained 10 mM phosphate buffer (pH 7.4), 100 mM Br-Free or Commercially obtained reagent grade KCl, as well as 1 mM H2O2 and 200 μM PHG where appropriate. (FIG. 8D) SDS-PAGE and coomassie blue stain of hPXDN (27.25 nM) and NC1 domain (1.3 μM) reaction and subsequent densiometric quantitation of S═N bond formation stiochiometry in response to NaBr addition. hPXDN and PFHR-9 NC1 domain were prepared and purified as described (5), except with all buffers for all purification steps (dialysis, chromatography, gradient ultracentrifugation) made with Br-Free chloride salts. Reactions were run for 10 minutes at 37° C. with 10 μM H2O2 as the terminal oxidant. Dose-response curve run in the presence of 1× Br-Free PBS. Reactions were quenched with 0.2 mg/ml Catalase, 20 mM Methionine, and 1 mM PHG. EC50 value±95% C.I. from two independent experiments with each data point plotted and fit.\nUncrosslinked PFHR9 matrix was extensively washed into 10 mM phosphate buffer (pH 7.4) that was supplemented with 100 mM KF to maintain ionic strength. One hour reactions at 37° C. were initiated by addition of H2O2 to 1 mM and stopped by freezing at −20° C. […] Samples were digested with collagenase at 37° C. overnight and visualized by SDS-PAGE using 12% gels under non-reducing conditions with Coomassie staining.\nPFHR-9 cells treated with potassium iodide (1-10 mM) to eliminate NC1 hexamer crosslinks were used for basement membrane isolation. To test halide dependency, the inventors established halide-free conditions by washing extensively (at least five times) with 10 mM sodium phosphate pH 7.4. To try to extract or inactivate endogenous basement membrane peroxidase activity, the inventors extracted the matrix preparation twice with 2M guanidine-Cl, 50 mM Tris-Cl pH 7.5 and 10 mM EDTA-Na pH 8 followed by extensive washing with 1×PBS. Basement membrane was resuspended in the desired buffer with or without cofactors and inhibitors to examine in vitro NC1 crosslinking under various conditions. Basement membranes were collagenase solubilized to delineate collagen IV NC1 sulfilimine crosslink formation with SDS-PAGE and Coomassie blue staining membrane was isolated, washed extensively and resuspended in 1×PBS. Azide (0-10 mM) and 1 mM H2O2 were added and allowed to react for 1 h at 37° C. The matrix was pelleted, washed extensively with 1×PBS and solubilized with 1×PBS plus 2% (w/v) SDS. Solubilized proteins were reacted with 100 μM Tris[(1-benzyl-1H-1,2,3-triazol-4-yl)methyl]amine (Anaspec), 1 mM Tris(2-carboxyethyl)phosphine hydrochloride (ThermoFisher Pierce), 1 mM cupric sulfate and 100 μM biotin alkyne (PEG4 carboxamide-propargyl biotin; Life Technologies) for 1 h at 37° C. Click chemistry reactions were quenched with 1 mM 3′-azido-3′-deoxythymidine (Sigma). For avidin-HRP detection, samples were electrophoresed under reducing conditions, transferred to nitrocellulose membranes and probed with streptavidin-HRP according to manufacturer instructions (ThermoFisher Pierce). To isolate biotinylated proteins, the inventors precipitated click reaction products with two volumes of cold acetone to remove reactants, washed them with 70% (v/v) acetone and then resolubilized them in 1×PBS plus 2% SDS."}, "[2]": {"target": "T2, collagen IV NC1 hexamer (Mus musculus, UniProt P02463+P08122)", "T2 sequence (P02463 1445-1669 limits assumed)": "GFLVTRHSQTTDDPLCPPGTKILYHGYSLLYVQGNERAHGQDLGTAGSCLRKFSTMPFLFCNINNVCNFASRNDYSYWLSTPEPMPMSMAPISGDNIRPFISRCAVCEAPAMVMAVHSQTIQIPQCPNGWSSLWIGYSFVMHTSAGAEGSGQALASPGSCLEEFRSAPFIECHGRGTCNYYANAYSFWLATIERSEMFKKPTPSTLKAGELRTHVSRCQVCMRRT", "T2 sequence (P08122 1484-1707 limits assumed)": "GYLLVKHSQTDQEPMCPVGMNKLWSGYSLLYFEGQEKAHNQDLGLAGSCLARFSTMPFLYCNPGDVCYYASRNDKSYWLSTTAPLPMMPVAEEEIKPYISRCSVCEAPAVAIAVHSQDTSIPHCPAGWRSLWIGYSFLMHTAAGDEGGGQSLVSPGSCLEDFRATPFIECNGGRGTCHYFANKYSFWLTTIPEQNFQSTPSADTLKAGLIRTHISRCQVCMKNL", "assay": "Hypohalous acid oxidation of purified uncrosslinked NC1 hexamer", "conditions": "for effect of pretreatment on S═N bond formation by HOBr: NC1 hexamer pretreated with the substance, then treated with HOBr; for crosslinked dimeric subunits (percentage of dimeric subunit): 500 nM NC1 hexamer, 5 μM hypohalous acid, 30 min at 37° C. (FIG. 4A)", "procedure": "(FIG. 4A) Five hundred nanomolar collagen IV NC1 hexamer (3 μM potential crosslinks) was incubated alone (control) or with 5 μM hypochlorous (HOCl) or hypobromous acid (HOBr) for 30 min at 37° C. […] (FIGS. 4B-D) 16 nM myeloperoxidase (MPO) (FIG. 4B), eosinophil peroxidase (EPO) (FIG. 4C) or lactoperoxidase (LPO) (FIG. 4D) were reacted with 500 nM NC1 hexamer (3 μM potential crosslinks) for varying time points in 1×PBS with or without 10 μM H2O2. In the case of LPO, all reactions proceeded for 60 min. Collagen IV-sulfilimine crosslink content was visualized after SDS-PAGE and Coomassie blue staining of the reactions. Each gel is representative of three independent experiments. PHG, phloroglucinol; MW, molecular weight.\nFIGS. 9A-D. Chemical mechanism of sulfilimine formation within the NC1 hexamer. (FIG. 9A) Purified uncrosslinked NC1 hexamer (5 μM) was reacted for 5 minutes at 37° with the indicated amounts of hypohalous acids and analyzed by SDS-PAGE. […] Values represent mean±S.D. (n=3). (FIG. 7B) Uncrosslinked NC1 hexamer (1.3 μM) in Br-Free PBS was preoxidzed with indicated amounts of HOCl for 1 min at 37 C, followed by post-oxidation with the addition of 8 mol eq. HOBr (or HOCl as a control) which was reacted for an additional minute at 37° C., then quenched with 20 mM methionine. Gel is representative of two experiments (FIG. 9C) XIC analysis of the residual monomeric NC1 subunit following HOCl oxidation (10 mol eq) compared to input NC1 monomer after SDS-PAGE and in-gel trypsin digestion. ^16O addition to the methionine residues was confirmed by MS3 analysis. (FIG. 9D) Met93 oxidation pathway consistent with experimental data and the resultant enthalphic landscape for S═N bond formation within the NC1 hexamer.\n(FIG. 15) Fifty micromolar of hypohalous oxidants were added to 5 μM uncrosslinked NC1 domains, and reacted for 5 minutes at 37° C. before quenching by adding L-methionine to 1 mM final concentration. […] Experiments were run in triplicate and analyzed by 12% non-reducing SDS-PAGE and ImageJ.\nThe efficiency of HOBr as a reagent was compared to other hypohalous acids, during a 5′ reaction with uncrosslinked hexamers containing 5 μM NC1 domains.\nThe inventors therefore tested the molar efficiency of oxidation of purified uncrosslinked NC1 hexamer with HOCl and HOBr (FIG. 9A). […] To test this, they pretreated uncrosslinked NC1 hexamer with varying concentrations of HOCl, then treated with HOBr. […] As an independent approach to testing the dead-end sulfoxide hypothesis, the inventors pretreated NC1 hexamer with escalating levels of H2O2, a reagent known to generate methionine sulfoxides (Liang et al., 2012). […] They next decided to directly visualize the peptide containing Met93, the S donor of the S═N bond, within the residual monomeric NC1 fraction after HOCl oxidation and compare its oxidation status to untreated NC1 hexamer."}, "[3]": {"system": "PFHR-9 cells", "assay": "Collagen IV sulfilimine crosslink formation in PFHR-9 cell culture (NC1 hexamer, SDS-PAGE)", "assay_type": "cell-based, mouse", "conditions": "for effect on NC1 dimer / crosslink formation in culture: PFHR9 matrix grown 5-8 days with potassium halide salts, SDS-PAGE; for IC50: halide/pseudohalide screen in cell culture, read-out: IC50, inhibition of S═N formation"}, "[4]": {"conditions": "matrix grown 5-8 days with potassium salts, 95% CI"}}, "data": [{"molecule": "OO", "note": "[H2O2, hydrogen peroxide]", "values": [{"measurement": "sulfilimine bond formation in isolated basement membrane", "setting": "[1]; inhibitor removed, with versus without H2O2 (FIG. 2C)", "value": "Sulfilimine bonds formed rapidly"}, {"measurement": "effect of pretreatment on S═N bond formation by HOBr", "setting": "[2]", "value": "dose-dependent decrease in the crosslinking efficacy of HOBr"}]}, {"molecule": "N#C[S-].[K+]", "note": "[KSCN, potassium thiocyanate]", "values": [{"measurement": "effect on NC1 dimer / crosslink formation in culture", "setting": "[3]", "value": "dimer inhibition"}, {"measurement": "effect on NC1 dimer / crosslink formation in culture", "setting": "[3]; listed as SCN^−", "value": "potent inhibitor of peroxidasin-mediated crosslink formation"}, {"measurement": "IC50", "setting": "[3]; [4]", "value": 17, "unit": "µM"}]}, {"molecule": "OCl", "note": "[HOCl, hypochlorous acid]", "values": [{"measurement": "crosslinked dimeric subunits (percentage of dimeric subunit)", "setting": "[2]", "value": "increased significantly"}, {"measurement": "crosslinked dimeric subunits (percentage of dimeric subunit)", "setting": "[2]; listed as hypochlorous acid", "value": "yielded crosslinked dimeric subunits"}, {"measurement": "concentration required to drive S═N bond formation", "setting": "[2]; 5 μM NC1 hexamer, 5 minutes at 37° (FIG. 9A)", "value": 50, "unit": "µM"}, {"measurement": "effect of pretreatment on S═N bond formation by HOBr", "setting": "[2]", "value": "decreased with pretreatment of increasing levels of HOCl"}, {"measurement": "S═N bond formation as share of total Met93 oxidized", "setting": "[2]; oxidation event 1 (OE1), S—Cl or S—Br halosulfonium intermediate", "value": 19, "unit": "%"}]}, {"molecule": "[Cl-].[K+]", "note": "[Br-free KCl, KCl]", "values": [{"measurement": "dimer formation with bromide-free chloride as halide source", "setting": "[1]; 100 mM Br-free chloride salt, 1 mM H2O2, isolated PFHR-9 matrix", "value": "did not support dimer formation to levels comparable with untreated controls"}]}, {"molecule": "[F-].[K+]", "note": "[Fluoride, potassium fluoride]", "values": [{"measurement": "S═N bond formation in isolated matrix", "setting": "[1]", "value": "inert"}]}, {"molecule": "[I-].[K+]", "note": "[potassium iodide]", "values": [{"measurement": "effect on NC1 dimer / crosslink formation in culture", "setting": "[3]", "value": "dimer inhibition"}, {"measurement": "IC50", "setting": "[3]; [4]", "value": 84, "unit": "µM"}, {"measurement": "formation of collagen IV crosslinks", "setting": "[3]; inhibitor present during cellular deposition of basement membrane, FIG. 2A: PHG 50 μM, MMI 1 mM, KI 10 mM, 3-AT 10 mM, BAPN 500 μM, putrescine 2.5 mM", "value": "inhibited collagen IV crosslink formation"}, {"measurement": "S═N bond formation in isolated matrix", "setting": "[1]", "value": "demonstrated no S═N formation"}, {"measurement": "S═N bond formation in isolated matrix", "setting": "[1]; listed as KI", "value": "did not faciliate crosslinking"}]}, {"molecule": "[Br-].[K+]", "note": "[KBr, potassium bromide]", "values": [{"measurement": "effect on NC1 dimer / crosslink formation in culture", "setting": "[3]", "value": "dimer enhancement"}, {"measurement": "EC50", "setting": "[3]; halide screen in cell culture, matrix grown 5-8 days with potassium salts, 95% CI, read-out: EC50, enhancement of S═N formation", "value": 75, "unit": "µM"}]}]}
